We go through two molecules from article PMC3225806 (Chemistry & biology, 2011).

The test has as its system full-length JFH-1 replicon. As to the kind of experiment: replicon model, intracellular HCV RNA by RT-qPCR. Format: cell-based, hepatitis C virus in Huh-7 cells. The conditions noted are these: peptides 20 µM, controls 1 µM, 48 hours.

As to `COc1ccc2c(O[C@@H]3C[C@H]4C(=O)N[C@]5(C(=O)O)C[C@H]5/C=C\CCCCC[C@H](NC(=O)OC5CCCC5)C(=O)N4C3)cc(-c3csc(NC(C)C)n3)nc2c1` [BILN2061], the “intracellular HCV RNA levels in replicon cells” value was “efficiently reduced HCV RNA levels”.
With `C[C@@]1(O)[C@H](O)[C@@H](CO)O[C@H]1n1ccc(N)nc1=O` [Peptide 2-CMC, 2’-C-methylcytidine] the entry was “efficiently reduced HCV RNA levels”.
